Results as given in article PMC10263468, “Biosynthesis of cannabigerol and cannabigerolic acid: the gateways to further cannabinoid production” (Synthetic Biology, 2023).

Legend:
Assay in all cases: endpoint assay, LC-MS quantification of product
AtaPT [1] = target: T1, AtaPT (Aspergillus terreus, UniProt A0A1B0UHJ4, E91Q); assay type: biochemical; conditions: read-out: Apparent Km; co-substrate GPP 1 mM; 1 μM enzyme; 25 mM Tris pH 8, 150 mM NaCl, 5% glycerol; 25°C; approximate constant
T1 construct: gene PT; N-terminal His6 tag (pETM11), codon-optimised synthetic gene, E. coli ArcticExpress (DE3), purified
T1 sequence (A0A1B0UHJ4 whole entry E91Q): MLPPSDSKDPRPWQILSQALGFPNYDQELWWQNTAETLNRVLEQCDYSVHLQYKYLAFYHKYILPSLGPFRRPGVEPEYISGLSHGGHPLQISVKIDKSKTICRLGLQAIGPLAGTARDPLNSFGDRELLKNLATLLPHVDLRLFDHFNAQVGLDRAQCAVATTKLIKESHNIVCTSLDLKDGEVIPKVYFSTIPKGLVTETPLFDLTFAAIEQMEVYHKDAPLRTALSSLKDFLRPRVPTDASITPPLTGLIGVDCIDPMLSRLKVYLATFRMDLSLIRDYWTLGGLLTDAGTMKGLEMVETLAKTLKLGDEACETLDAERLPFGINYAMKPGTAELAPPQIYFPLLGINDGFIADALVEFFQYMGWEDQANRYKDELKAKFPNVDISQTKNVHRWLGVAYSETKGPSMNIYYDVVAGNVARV
Text: (§1) endpoint assay, LC-MS quantification of product on AtaPT

AtaPT [2] = target: T2, AtaPT (Aspergillus terreus, UniProt A0A1B0UHJ4, E91D); assay type: biochemical; conditions: read-out: Apparent Km; co-substrate GPP 1 mM; 1 μM enzyme; 25 mM Tris pH 8, 150 mM NaCl, 5% glycerol; 25°C; approximate constant
T2 construct: gene PT; N-terminal His6 tag (pETM11), codon-optimised synthetic gene, E. coli ArcticExpress (DE3), purified
T2 sequence (A0A1B0UHJ4 whole entry E91D): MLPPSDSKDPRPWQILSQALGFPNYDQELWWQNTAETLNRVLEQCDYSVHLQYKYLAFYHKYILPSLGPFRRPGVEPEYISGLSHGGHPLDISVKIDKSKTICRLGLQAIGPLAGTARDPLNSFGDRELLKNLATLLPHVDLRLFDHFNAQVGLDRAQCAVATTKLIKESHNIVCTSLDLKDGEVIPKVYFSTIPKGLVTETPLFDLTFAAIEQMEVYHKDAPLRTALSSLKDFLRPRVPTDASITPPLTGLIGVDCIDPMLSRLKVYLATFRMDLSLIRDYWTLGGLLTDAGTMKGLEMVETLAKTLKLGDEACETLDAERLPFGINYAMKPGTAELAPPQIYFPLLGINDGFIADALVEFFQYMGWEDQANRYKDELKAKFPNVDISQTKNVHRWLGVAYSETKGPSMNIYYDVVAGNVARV
Text: as §1

AtaPT [3] = target: T3, AtaPT (Aspergillus terreus, UniProt A0A1B0UHJ4, E91A); assay type: biochemical; conditions: read-out: Apparent Km; co-substrate GPP 1 mM; 1 μM enzyme; 25 mM Tris pH 8, 150 mM NaCl, 5% glycerol; 25°C; approximate constant
T3 construct: gene PT; N-terminal His6 tag (pETM11), codon-optimised synthetic gene, E. coli ArcticExpress (DE3), purified
T3 sequence (A0A1B0UHJ4 whole entry E91A): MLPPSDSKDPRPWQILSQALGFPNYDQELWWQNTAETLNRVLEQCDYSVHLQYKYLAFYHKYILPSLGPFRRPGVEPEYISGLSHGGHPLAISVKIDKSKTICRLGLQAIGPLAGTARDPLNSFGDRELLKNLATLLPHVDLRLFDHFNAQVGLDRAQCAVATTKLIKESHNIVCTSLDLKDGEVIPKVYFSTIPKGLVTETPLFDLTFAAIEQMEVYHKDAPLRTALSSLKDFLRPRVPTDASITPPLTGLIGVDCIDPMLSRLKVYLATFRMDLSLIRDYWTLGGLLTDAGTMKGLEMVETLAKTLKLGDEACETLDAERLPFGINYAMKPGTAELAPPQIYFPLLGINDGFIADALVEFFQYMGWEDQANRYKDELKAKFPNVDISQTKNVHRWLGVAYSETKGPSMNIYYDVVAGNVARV
Text: as §1

[4] = tested on: CCCCCc1cc(O)cc(O)c1C(=O)O; assay type: biochemical, Aspergillus terreus; conditions: co-substrate GPP 1 mM, 10 μM enzyme, 25 mM Tris pH 8, 150 mM NaCl, 5% glycerol, 25°C, approximate constant (high enzyme concentration)
Text: as §1

| Molecule | Km (AtaPT [1]) | Km (AtaPT [2]) | Km (AtaPT [3]) | Km [4] | kcat [4] |
| --- | --- | --- | --- | --- | --- |
| CCCCCc1cc(O)cc(O)c1C(=O)O [OA, olivetolic acid] | 94 ± 32 µM | 266 ± 44 µM | 332 ± 96 µM |  |  |
| AtaPT (Aspergillus terreus) |  |  |  | 1083 ± 126 µM | 0.000147 ± 5e-06 s⁻¹ |
